# Several values for one entry are separate records, joined by “and”; a condition that tells them apart may be missing. Equal values may be shown once.
# Experiments:
# [1] = In vitro skin irritation test, MTT viability; type: cell-based, human; details: human; 15 min exposure, 42 h post-incubation, relative to phosphate buffered saline; read-out: Cell Viability (%)
# Description: (§1) Tests were performed in triplicate. […] Following exposure, samples were rinsed with phosphate buffered saline until no test item remain, dried carefully, and placed in a new 2 mL well with pre-warmed Maintenance Medium to incubate for 42 h. After incubation, cell culture inserts were dried carefully, transferred into a 12-well plate prefilled with 2 mL MTT in phosphate buffered saline (.3 mg/mL), and incubated for 3 h. Tissue samples were then dried, and a biopsy punch was taken. The epidermis was separated from the collagen matrix, and both were extracted with 500 μL isopropanol and stored for 70 h refrigerated. The amount of extracted formazan was measured in duplicate for each sample by the OD570.
# [2] = tested on: EPISKIN Small Model (human epidermis model); experiment: In vitro skin irritation test, MTT viability; type: cell-based
# Description: as §1
# [3] = In vitro skin corrosion test, MTT viability; details: human, EpiDerm Skin Model (reconstructed human epidermis)
# Description: (§2) The skin corrosion test was performed to assess the cytotoxic effects of BondLynx immediately following short-term exposure to the stratum corneum of the epidermis using an in vitro skin model.[32]–[34] Cytotoxicity to the skin model was expressed as the reduction of mitochondrial dehydrogenase activity measured by formazan production from 3-(4,5-dimethylthiazol-2-yl)-2,5-diphenyl tetrazolium bromide (MTT). […] BondLynx was checked for direct MTT reduction by incubating at least 50 mg of BondLynx with 1 mL MTT for 3 h to ensure that no blue/purple colour change or precipitate occurred. BondLynx was tested for colour interference by incubating at least 50 mg of BondLynx in water for 1 h and isopropanol for 2-3 h, centrifuging for 30 s at 16,000 g, and measuring the OD570 to ensure an optical density ≤.08 (after subtracting a Milli-Q water blank).
# (§3) Incubations were performed at 37.0-37.3°C, in an atmosphere with 77%-95% humidity containing 5.0 ± .5% CO2 in air unless otherwise stated. The positive control was 8.0 N aqueous potassium hydroxide (KOH) solution, and the negative control was Milli-Q water. BondLynx was applied directly to the test system as a solid and spread to match the size of the tissue. Tests were performed in duplicate.
# (§4) Skin tissue samples were refrigerated for 1 day upon receipt before placing in a six-well plate with .9 mL supplemented DMEM (just enough to reach the bottom of the tissue) 1 h before testing. A total of four samples were prepared per test item by applying 50 μL of the positive or negative control, or 25 μL of Milli-Q water (to moisten the tissue and ensure close contact) followed by 34.2-39.8 mg of BondLynx. Two samples of each test item were incubated for 3 min at room temperature, while the remaining samples were incubated for 1 h. After exposure, tissues were washed with phosphate buffered saline, dried carefully, and stored in 300 μL DMEM in a 24 well plate until the full six-well plate was dosed and rinsed.
# (§5) Cell viability after incubation was determined by replacing the DMEM with 300 μL MTT in supplemented DMEM (1 mg/mL) and incubating for 3 h. Tissues were then washed with phosphate buffer saline, and formazan was extracted with 2 mL isopropanol overnight. The amount of extracted formazan was measured in triplicate for each sample by the OD570.
# (§6) Optical density readings were corrected by subtracting the mean blank OD570. Cell viability was calculated as the percentage of the mean corrected OD570 for the test compound relative to the mean OD570 for the negative control (% Viability = ODtest/ODnegative control × 100%).
# [4] = tested on: EpiDerm Skin Model (human-derived epidermal keratinocytes); experiment: In vitro skin corrosion test, MTT viability; details: for OD570 / OD570 corrected: tissues A and B, triplicate readings
# Description: as §2, §3, §4, §5, §6
# isolated bovine cornea = experiment: Bovine Corneal Opacity and Permeability test (BCOP); design: key to Mean Opacity Change: mean of final − initial opacity; opacity = (I0/I − 0.9894)/0.0251
# Description: The BCOP Assay was performed to evaluate the eye hazard potential of BondLynx, as measured by its ability to induce opacity and increase permeability in an isolated bovine cornea. The BCOP is an in vitro model that provides short-term maintenance of normal physiological and biological function of the bovine cornea in an isolated system so that eye damage can be assessed by quantitative measurements of changes in corneal opacity and permeability.[45],[46]
# Tests were performed using bovine corneas isolated from the eyes of young cattle after slaughter and transported in biological saline under cooled conditions. […] BondLynx was ground with a mortar and pestle and applied directly to the corneas as a solid. Tests were performed in triplicate.
# Bovine eyes were checked for unacceptable defects, such as opacity, scratches, pigmentation, and neovascularization upon receipt by removing them from the physiological saline and holding them in the light. Corneas were isolated from acceptable specimens and stored in a petri dish with cMEM (Eagle’s Minimum Essential Medium with 1% v/v L-glutamine and 1% v/v foetal bovine serum) at 32 ± 1°C. Isolated corneas were mounted in a corneal holder with the endothelial side against the O-ring of the posterior half of the holder and the anterior half of the holder tightened on top of the cornea with screws. The compartments of the corneal holder were filled with cMEM and the corneas were incubated for a minimum of 1 h at 32 ± 1°C. The initial corneal opacity was determined by replacing the medium in both compartments with fresh cMEM and using an opacitometer to measure the opacity against a cMEM filled chamber. Only corneas with an initial opacity <7 were used for testing.
# A total of three samples were prepared for each test item by removing the medium from the anterior compartment of the holder and applying 750 μL of positive or negative control, or 306.6-333.6 mg of BondLynx. The corneal holders were positioned so that the test item uniformly covered the cornea within, and the entire assembly was incubated at 32 ± 1°C for 240 ± 10 min. The test item was then removed, and the epithelium was washed at least three times with MEM containing phenol red. Corneas were visually inspected for pH effects and dissimilar opacity patterns before refilling both compartments with fresh cMEM.
# Corneal opacity was measured by the diminution of light (I = luminous flux per area) passing through the cornea. The opacity value was calculated according to the formula: Opacity=I0/I−0.9894/0.0251 where I0 is the empirically determined illuminance through a cornea holder with just windows and medium and I is the measured illuminance through a holder with a cornea. The change in opacity for each individual cornea was calculated by subtracting the initial opacity from the final post-treatment reading, and the corrected opacity was calculated by subtracting the average change in opacity of the negative control corneas (if > 0) from the change in opacity for corneas treated with BondLynx or positive control.
# Following the final opacity measurement, permeability of the cornea to Na-fluorescein was evaluated by removing the medium from both corneal holder compartments, then refilling the posterior compartment with fresh cMEM and the anterior compartment with 1 mL of Na-fluorescein in cMEM (5 mg/mL). The corneal holders were positioned so that the test item uniformly covered the cornea within, and the entire assembly was incubated at 32 ± 1°C for 90 ± 5 min. The medium from the posterior compartment was then removed, and a 360 μL aliquot was placed in a 96-well plate to measure the OD490 in triplicate. Any sample with an OD490 that was 1.500 or higher was diluted to bring the OD490 into the acceptable range. The corrected OD490 was calculated by subtracting the average change in OD490 for the negative control (if > 0) from the change in OD490 of either BondLynx or positive control treated cornea.
structure (smiles),measurement,setting,value
"FC(F)(F)C1(c2ccc(C(c3ccc(C4(C(F)(F)F)N=N4)cc3)(C(F)(F)F)C(F)(F)F)cc2)N=N1 [BondLynx, 2,2-bis-[4-[3-(trifluoromethyl)-3H-diazirin-3-yl]phenyl]hexafluoropropane]",viability at 15 min,[1],106%
same,Mean ± SD (OD570 corrected),"[2]; 15 min exposure, 42 h post-incubation",1.019 ± .011
same,OD570,"[2]; 15 min exposure, 42 h post-incubation, tissues A-C, duplicate readings",1.0621 and 1.0517 and 1.0668 and 1.0420 and 1.0901 and 1.0602
same,Skin irritation classification,[2]; viability >50%,non-irritant
same,viability at 3 min,[3],101%
same,viability at 1 h,[3],95%
same,Mean ± SD (OD570 corrected),[4]; 3 min exposure,1.7 ± 0.1
same,OD570,[4]; 3 min exposure,1.8819 and 1.869 and 1.8445 and 1.7365 and 1.7069 and 1.7026
same,OD570 corrected,[4]; 3 min exposure,1.837 and 1.8241 and 1.7996 and 1.6916 and 1.662 and 1.6577
same,Mean ± SD (OD570 corrected),[4]; 1 h exposure,1.85 ± .09
same,OD570,[4]; 1 h exposure,1.9919 and 1.9396 and 1.9528 and 1.8727 and 1.8128 and 1.8033
same,OD570 corrected,[4]; 1 h exposure,1.947 and 1.8947 and 1.9079 and 1.8278 and 1.7679 and 1.7584
same,Skin corrosion classification,[4]; viability >50% after 3 min and >15% after 1 h,not corrosive
same,Opacity,"isolated bovine cornea; 240 min exposure, individual corneas",0.9 and 0.7
same,Appearance of corneas after treatment,isolated bovine cornea; 240 min of treatment,clear
same,UN GHS eye damage classification,isolated bovine cornea; IVIS <3: No Category,does not require classification for eye damage or irritation
same,pH effects in the rinsing medium,isolated bovine cornea; after 240 min exposure,No pH effects
same,Corrected Opacity Change,isolated bovine cornea; individual corneas,1.6 and 0.9 and 0.7
same,Final Opacity,"isolated bovine cornea; individual corneas, after 240 min treatment",1.9 and 0.9 and 2.5
same,Initial Opacity,"isolated bovine cornea; individual corneas, before treatment",0.3 and 0 and 1.8
same,Opacity Change,"isolated bovine cornea; individual corneas, final minus initial",1.6 and 0.9 and 0.7
same,IVIS,"isolated bovine cornea; individual corneas, opacity + 15 × OD490",0.9 and 1.0
same,Mean IVIS ± SD,isolated bovine cornea; three corneas,1.2 ± 0.4
same,Mean Opacity Change,isolated bovine cornea; three corneas,1.1

# — paper PMC10916352, “Safety Evaluation of a Prototypical Diazirine-Based Covalent Crosslinker and Molecular Adhesive” (International Journal of Toxicology, 2023)
